Data set [1] deals with primary human hepatocytes (PHH). In words: Cytotoxicity (cellular ATP, CellTiter-Glo) in 2D plated primary human hepatocytes, 48 h treatment.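 On all read-outs here: 384-well plates, luminescence read-out, normalized to vehicle wells with 1% DMSO.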 In kind it is cell-based. Particulars: for IC50: Hepatocyte, 2D primary human hepatocytes (lot IZT), 48 h treatment, total cellular ATP content, read-out: Geomean IC50.
Data set [2] concerns 3D human liver microtissues (hLiMT). In words: alpha-GST release into hLiMT supernatant (ELISA). In kind it is cell-based. The following applies: 336 h, 14 days, release into medium, read-out: IC50 (α-GST assay).
The conditions of data set [3]: cited from earlier work.
Data set [4] has as its system 3D human liver microtissues (hLiMT). In words: Cytotoxicity (cellular ATP, CellTiter-Glo 2.0) in 3D human liver microtissues, 14 day repeat-dose treatment. Particulars: for IC50: Homo sapiens, 336 h.
Data set [5] shares this test system. In words: Cytotoxicity (cellular ATP) in 3D human liver microtissues, 5-6 days treatment.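 Further: Hanging-drop spheroids, seven-point dilution series, re-dosed on day 3, CellTiter-Glo 2.0 luminescence, normalized to 0.5 or 1% DMSO vehicle controls on the same plate.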 In kind it is cell-based. The following applies: Homo sapiens; hLiMT, 5/6 days, ATP content; read-out: IC50 SHORT.
The conditions of data set [6]: cited from earlier work; for P/N (DILI positive / DILI negative): P = DILI severity categories 1, 2 and 3, N = categories 4 and 5; for DILI category: clinical, from literature and product labels.
A short description of data set [7]: Clinical DILI severity categorization and DILI pattern. The following applies: P = DILI severity categories 1, 2 and 3; N = categories 4 and 5.
For data set [8] the following is noted: ref Chen et al 2016 / Chen et al 2011; cited from earlier work.
The mark [9] stands for this setting: human Cmax total, used for IC50/Cmax.
Setting [10] is: human total plasma Cmax, ref literature values.
[11] abbreviates: Hepatocyte, read-out: Geomean IC50 [µM].
Setting [12] is: Table 1, ref Garside et al. (2014).
Where [13] appears, read: clinical DILI severity category, 1-5.
Where [14] appears, read: table S-5, ref Garside et al. 2014.
The mark [15] stands for this setting: table S-4, ref Garside et al. 2014.

Where two headings read alike, the source gives them in different places.

Turning to `CC(=O)Nc1ccc(O)cc1` [Acetaminophen], the IC50 is 4600 µM in data set [1]; 3260 µM in data set [2]; 732 µM in data set [4] (read-out: IC50 (ATP-assay)); 573 µM in data set [4] (read-out: IC50 LONG); approximately 573 µM in data set [4] (setting [11]); 911 µM in data set [5]. Also, the highest concentration (Cmax) in data set [3] (setting [9]) and in data set [3] (setting [10]) was 165 µM throughout.
Regarding `O=C(O)Cc1ccccc1Nc1c(Cl)cccc1Cl` [Diclofenac], the IC50 is more than 500 µM in data set [1]; 210 µM in data set [2]; 45.6 µM in data set [4] (read-out: IC50 (ATP-assay)); 61.4 µM in data set [4] (read-out: IC50 LONG); approximately 61.4 µM in data set [4] (setting [11]); 100 µM in data set [5]. Also, the Cmax in data set [3] (setting [9]) and in data set [3] (setting [10]) was 10.1 µM throughout.
Turning to `CCN(CC)C(=O)/C(C#N)=C/c1cc(O)c(O)c([N+](=O)[O-])c1` [Entacapone], the “P/N (DILI positive / DILI negative)” value in data set [6] and in data set [7] was “N” in each case. Moreover, the figures for the DILI severity category in data set [6] (setting [12]) and in data set [6] (setting [13]) were 4: Enzyme elevations in clinic (N = 16) and 4. Enzyme Elevations in Clinic, respectively. Also, the DILI category in data set [6] (ref Garside et al. 2014) is 4. Enzyme Elevations in Clinic. The results for the IC50 in data set [1] and in data set [4] (setting [11]) were 100 µM and 152 µM, respectively. The Cmax in data set [3] (setting [9]) and in data set [3] (setting [10]) was 3.28 µM each time. Also, the “FDA DILI Classification DILI severity score” value in data set [8] is on record as 0. In addition, in data set [8], the “LTKB DILI classification” value is on record as “less DILI concern”.
`Cc1c(-c2ccccc2)oc2c(C(=O)OCCN3CCCCC3)cccc2c1=O` [Flavoxate]: the “P/N (DILI positive / DILI negative)” value in data set [6] and in data set [7] was “N” throughout. Also, the DILI severity category in data set [6] (setting [12]) is reported as 5: No DILI (N = 25); in data set [6] (setting [13]), 5. No DILI. The DILI category in data set [6] (ref Garside et al. 2014) is 5. No DILI. The half-maximal inhibitory concentration (IC50) in data set [1] and in data set [4] (setting [11]) was more than 10 µM each time. Moreover, the Cmax in data set [3] (setting [9]) and in data set [3] (setting [10]) was 1.79 µM throughout. Besides, in data set [8], the “FDA DILI Classification DILI severity score” value is on record as 0. The “LTKB DILI classification” value in data set [8] was “no DILI concern”.
As for `CCOC(=O)c1ncn2c1CN(C)C(=O)c1cc(F)ccc1-2` [Flumazenil], the “P/N (DILI positive / DILI negative)” value in data set [6] and in data set [7] was “N” throughout. Moreover, the results for the DILI severity category in data set [6] (setting [12]) and in data set [6] (setting [13]) were 5: No DILI (N = 25) and 5. No DILI, respectively. Besides, in data set [6] (ref Garside et al. 2014), the DILI category was 5. No DILI. Moreover, the IC50 in data set [1] and in data set [4] (setting [11]) was more than 250 µM each time. The Cmax in data set [3] (setting [9]) and in data set [3] (setting [10]) was 1.12 µM throughout. Further, in data set [8], the “FDA DILI Classification DILI severity score” value is 0. In addition, in data set [8], the “LTKB DILI classification” value is reported as “no DILI concern”.
Turning to `C[N+](C)(C)C[C@H](O)CC(=O)[O-]` [Levocarnitine], the “P/N (DILI positive / DILI negative)” value in data set [6] and in data set [7] was “N” in each case. In addition, the DILI severity category is 5: No DILI (N = 25) in data set [6] (setting [12]), 5. No DILI in data set [6] (setting [13]) and 5. No DILI in data set [6] (setting [14]). In data set [6] (ref Garside et al. 2014), the DILI category is on record as 5. No DILI. For the same compound, the IC50 in data set [1] and in data set [4] (setting [11]) was more than 10000 µM each time. Further, the Cmax in data set [3] (setting [9]) and in data set [3] (setting [10]) was 85.7 µM each time. Moreover, the “LTKB DILI classification” value in data set [8] is given as “no DILI concern”.
As for `CNC1(C)C2CCC(C2)C1(C)C` (stereo not drawn) [Mecamylamine], the “P/N (DILI positive / DILI negative)” value in data set [6] and in data set [7] was “N” in each case. Further, the DILI severity category in data set [6] (setting [12]) was 5: No DILI (N = 25); in data set [6] (setting [13]), 5. No DILI. Also, the DILI category in data set [6] (ref Garside et al. 2014) is given as 5. No DILI. For the same compound, the half-inhibitory concentration (IC50) in data set [1] is more than 50 µM; in data set [4] (setting [11]), more than 25 µM. In addition, the Cmax in data set [3] (setting [10]) was 0.14 µM. The “FDA DILI Classification DILI severity score” value in data set [8] is listed as 0. Also, in data set [8], the “LTKB DILI classification” value is given as “no DILI concern”.
Turning to `Cc1ccc(Cl)c(Nc2ccccc2C(=O)O)c1Cl` [Meclofenamate], the “P/N (DILI positive / DILI negative)” value in data set [6] and in data set [7] was “N” in each case. In addition, the DILI severity category was 4: Enzyme elevations in clinic (N = 16) in data set [6] (setting [12]) and 4. Enzyme Elevations in Clinic in data set [6] (setting [13]). In data set [6] (ref Garside et al. 2014), the DILI category is on record as 4. Enzyme Elevations in Clinic. Besides, the IC50 in data set [1] was 292 µM; in data set [4] (setting [11]), approximately 23.1 µM. In addition, the “classification at 10× MOS threshold” value in data set [1] (PHH 48 h) and in data set [4] (hLiMT 14 days) was “false positive” throughout. Besides, the Cmax in data set [3] (setting [9]) and in data set [3] (setting [10]) was 81.1 µM throughout. Further, the “FDA DILI Classification DILI severity score” value in data set [8] is given as 3. For the same compound, the “LTKB DILI classification” value in data set [8] is recorded as “Ambiguous DILI concern”.
As to `CC(C)(C)NCC(O)COc1cccc2c1CC(O)C(O)C2` (stereo not drawn) [Nadolol], the “P/N (DILI positive / DILI negative)” value in data set [6] and in data set [7] was “N” each time. Moreover, the results for the DILI severity category in data set [6] (setting [12]), in data set [6] (setting [13]) and in data set [6] (setting [14]) were 4: Enzyme elevations in clinic (N = 16), 4. Enzyme Elevations in Clinic and 4. Enzyme Elevations in Clinic, respectively. In addition, in data set [6] (ref Garside et al. 2014), the DILI category was 4. Enzyme Elevations in Clinic. For the same compound, the IC50 in data set [1] and in data set [4] (setting [11]) was more than 100 µM throughout. Besides, the highest concentration (Cmax) in data set [3] (setting [9]) and in data set [3] (setting [10]) was 0.81 µM each time. Further, the “FDA DILI Classification DILI severity score” value in data set [8] is given as 3. For the same compound, the “LTKB DILI classification” value in data set [8] is reported as “Ambiguous DILI concern”.
With `CC(C)(C)NC[C@H](O)COc1ccccc1C1CCCC1` [Penbutolol], the “P/N (DILI positive / DILI negative)” value in data set [6] and in data set [7] was “N” throughout. Moreover, the DILI severity category in data set [6] (setting [12]) is listed as 4: Enzyme elevations in clinic (N = 16); in data set [6] (setting [13]), 4. Enzyme Elevations in Clinic. Further, the DILI category in data set [6] (ref Garside et al. 2014) is recorded as 4. Enzyme Elevations in Clinic. Further, the IC50 in data set [1] is 15.7 µM; in data set [4] (setting [11]), approximately 39 µM. In addition, the “classification at 100 μM IC50 threshold” value in data set [1] (PHH 48 h) and in data set [4] (hLiMT 14 days) was “false positives” throughout. Moreover, the Cmax in data set [3] (setting [9]) and in data set [3] (setting [10]) was 1.03 µM each time. The “LTKB DILI classification” value in data set [8] is “no DILI concern”.
As for `C1CCC(C(CC2CCCCN2)C2CCCCC2)CC1` (stereo not drawn) [Perhexiline], the DILI severity category in data set [6] (setting [12]) was 1: Severe clinical DILI (N = 23); in data set [6] (setting [13]), 1. Severe Clinical DILI; in data set [6] (setting [15]) it was 1; in data set [6] (setting [14]), 1. Severe Clinical DILI. Also, the DILI category in data set [6] (ref Garside et al. 2014) is 1. Severe Clinical DILI. In addition, the IC50 in data set [1] is 11.2 µM; in data set [2] it was 6.26 µM; in data set [4] (read-out: IC50 (ATP-assay)) it was 2.01 µM; in data set [4] (read-out: IC50 LONG), 2.5 µM; in data set [4] (setting [11]), approximately 2.6 µM; in data set [5], 4.2 µM. The “FDA DILI Classification DILI severity score” value in data set [8] is on record as 8. Further, the “LTKB DILI classification” value in data set [8] was “most DILI concern”.
Consider `CC(C)[N+](C)(CCOC(=O)C1c2ccccc2Oc2ccccc21)C(C)C` [Propantheline], for which the “P/N (DILI positive / DILI negative)” value in data set [6] and in data set [7] was “N” throughout. Besides, the DILI severity category was 5: No DILI (N = 25) in data set [6] (setting [12]) and 5. No DILI in data set [6] (setting [13]). Also, the DILI category in data set [6] (ref Garside et al. 2014) is 5. No DILI. Also, the concentration for half-maximal inhibition (IC50) in data set [1] and in data set [4] (setting [11]) was more than 50 µM each time. Further, the Cmax in data set [3] (setting [9]) and in data set [3] (setting [10]) was 0.44 µM in each case. The “FDA DILI Classification DILI severity score” value in data set [8] is listed as 0. Besides, in data set [8], the “LTKB DILI classification” value was “no DILI concern”.
For the compound `[H]/N=C(/N)N[C@H]1[C@H](O)[C@@H](O)[C@H](O[C@@H]2O[C@@H](C)[C@](O)(C=O)[C@H]2O[C@@H]2O[C@@H](CO)[C@H](O)[C@@H](O)[C@@H]2NC)[C@@H](N/C(N)=N\[H])[C@@H]1O` [Streptomycin], the “P/N (DILI positive / DILI negative)” value in data set [6] and in data set [7] was “N” in each case. For the same compound, the values for the DILI severity category in data set [6] (setting [12]), in data set [6] (setting [13]) and in data set [6] (setting [15]) were 5: No DILI (N = 25), 5. No DILI and 5, respectively. In addition, in data set [6] (binary DILI classification, table S-4), the P/N result is given as “N”. Moreover, the DILI category in data set [6] (ref Garside et al. 2014) was 5. No DILI. Further, the IC50 is more than 100 µM in data set [1], more than 100 µM in data set [4] (setting [11]) and 100 µM in data set [5]. In addition, the Cmax in data set [3] (setting [9]) and in data set [3] (setting [10]) was 64.5 µM in each case. Besides, the “LTKB DILI classification” value in data set [8] is given as “no DILI concern”.

Source of the values: publication PMC5515971, “Utility of spherical human liver microtissues for prediction of clinical drug-induced liver injury” (Archives of Toxicology, 2017).
